In patent US20180360972A1, “THERAPEUTIC COMPOUNDS” (REGENTS OF THE UNIVERSITY OF MINNESOTA, priority 2017, published 2018):
Blank lines part the entries; values can stand above or below the molecule they belong to. Square brackets hold non-standard residues; d marks the D form. Peptide text beside a SMILES is read from it. d2Nal = N[C@H](Cc1ccc2ccccc2c1)C(=O)O

Tests used:
[1] = target: T1, hMC4R (Homo sapiens, UniProt P32245); test: PRESTO-Tango β-arrestin recruitment assay; format: cell-based; conditions: for fold increase in β-arrestin recruitment compared to CJL-1-14: vs tetrapeptide CJL-1-14
T1 construct: Flag; expressed in transfected cells
Description: The PRESTO-Tango technology is an open-source resource that has been utilized to identify ligands for orphan receptors based on β-arrestin recruitment.
The plasmids and assay technology was kindly provided by the Bryan Roth laboratory (University of North Carolina at Chapel Hill) and are now available through ADDGENE (Kit # 1000000068).
The first day of the assay, HTLA cells were plated at approximately 1×10^6 cells per 10 cm plate and grown to 20-40% confluency. […] The third day, cells were removed from 10 cm plates using Gibco® Versene solution and pelleted by centrifugation (Sorvall Super T21 high speed centrifuge, swinging bucket rotor) at 800 rpm for five minutes at room temperature. Cells were manually counted on a hemocytometer and resuspended in 1% dialyzed FBS and 1% penicillin/streptomycin in DMEM to a final concentration of 400,000 cells/mL. […] Stimulated cells were incubated for 18 hours in 5% CO2 at 37° C. On the fifth day, the assay buffer and cell medium was removed by aspiration. […] After incubation, luminescence was then read on an EnSpire™ Alpha plate reader using a pre-normalized assay protocol for luminescence set by the manufacturer. Dose response curves were analyzed using the PRISM program (v4.0; GraphPad Inc.).
Target sequence in this assay (P32245 whole entry): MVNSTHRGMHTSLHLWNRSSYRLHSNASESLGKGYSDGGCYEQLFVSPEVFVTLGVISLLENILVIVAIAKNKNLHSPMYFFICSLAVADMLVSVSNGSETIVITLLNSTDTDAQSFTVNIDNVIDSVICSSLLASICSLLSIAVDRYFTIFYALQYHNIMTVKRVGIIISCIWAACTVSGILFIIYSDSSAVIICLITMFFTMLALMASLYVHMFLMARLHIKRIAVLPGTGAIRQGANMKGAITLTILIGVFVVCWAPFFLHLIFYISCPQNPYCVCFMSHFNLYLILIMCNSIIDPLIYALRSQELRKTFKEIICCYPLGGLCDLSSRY

[2] = target: T1, hMC4R; test: AlphaScreen cAMP functional bioassay, hMC4R; format: cell-based
Description: Upon agonist stimulation, melanocortin receptors are known to signal through a Gαs-protein mediated signaling pathway that results in intracellular cAMP accumulation.
Stable populations were selected for using G418 selection (0.7-1.0 mg/mL) and used in bioassays unless indicated otherwise. In vitro experimental ligands were dissolved to a 10^−2 M stock in DMSO and stored at −20° C. Subsequent dilutions were performed in each assay's specific buffer to achieve the final concentration in the well. The ligands were assayed as TFA salts.
AlphaScreen cAMP Functional Bioassay
The AlphaScreen® assay was performed as described by manufacturer.
Cells were removed from plates using Gibco® Versene solution and pelleted by centrifugation (Sorvall Super T21 high speed centrifuge, swinging bucket rotor) at 800 rpm for five minutes. […] A 10 μL aliquot of cell suspension was counted manually using a hemocytometer after addition of Trypan blue dye (BioRad). Cells were again pelleted by centrifugation, and DPBS was gently aspirated. The pelleted cells were then resuspended in a solution of freshly made stimulation buffer (Hank's Balanced Salt Solution [HBSS 10× [−] sodium bicarbonate] and [−] phenol red, Gibco®], 0.5 mM isobutylmethylxanthine [IBMX], 5 mM HEPES buffer solution [1M, Gibco®], 0.1% bovine serum albumin [BSA] in Milli-Q water, pH=7.4) and anti-cAMP acceptor beads (1.0 unit per well, AlphaScreen®). […] The cells were then stimulated with ligand diluted in stimulation buffer to achieve their final concentrations in the well ranging from 10^−13 to 10^−4 M. The stimulated plates were incubated in a dark laboratory drawer at room temperature for two hours.
Meanwhile, a biotinylated cAMP/streptavidin donor bead working solution was made by adding biotinylated cAMP (1 Unit/well, AlphaScreen®) and streptavidin donor beads (1 Unit/well, AlphaScreen®) to a lysis buffer (10% Tween-20, 5 mM HEPES buffer solution [1M, Gibco®], 0.1% bovine serum albumin [BSA] in Milli-Q water, pH=7.4). After the two hour stimulation, the biotinylated cAMP/Streptavidin donor bead working solution was added to each well under green light and mixed well by pipetting up and down. The cells were incubated for another two hours at room temperature in a dark drawer at room temperature. The plate was then read on an EnSpire™ Alpha plate reader using a pre-normalized assay protocol set by the manufacturer. Assays were performed with duplicate data points on each plate and repeated in at least three independent experiments.
Dose response curves were analyzed using the PRISM program (v4.0; GraphPad Inc.).
Target sequence in this assay (P32245 whole entry): as above

[3] = target: mMC5R (Mus musculus, UniProt P41149); test: mMC5R | Agonist EC50 (nM)
Chain of mMC5R (P41149 whole entry, looked up): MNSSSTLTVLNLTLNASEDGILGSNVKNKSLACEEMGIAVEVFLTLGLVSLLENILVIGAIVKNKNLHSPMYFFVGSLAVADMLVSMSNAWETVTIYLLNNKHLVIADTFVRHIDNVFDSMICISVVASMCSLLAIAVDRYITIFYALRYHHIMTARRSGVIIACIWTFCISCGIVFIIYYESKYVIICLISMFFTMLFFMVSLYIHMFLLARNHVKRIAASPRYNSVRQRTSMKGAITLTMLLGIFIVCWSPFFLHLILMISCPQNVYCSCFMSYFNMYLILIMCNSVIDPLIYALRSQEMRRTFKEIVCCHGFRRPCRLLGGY
Description: Table printed on a drawing sheet, Figure 23
The cAMP signaling potency was determined by AlphaScreen® assays. The reported errors are the standard error of the mean (SEM) determined from at least three independent experiments. Changes less than 3-fold were considered to be within the inherent experimental assay error. NS means compound was not soluble in bioassay compatible solvent.

[4] = target: mMC4R-NanoLuc and mMC4R-HaloTag homodimer (Mus musculus, UniProt P56450); test: NanoBRET ligand-dependent modulation of BRET signal; conditions: 10^−5, 10^−7 and 10^−9 M vs assay buffer
Chain of mMC4R-NanoLuc and mMC4R-HaloTag homodimer (P56450 whole entry): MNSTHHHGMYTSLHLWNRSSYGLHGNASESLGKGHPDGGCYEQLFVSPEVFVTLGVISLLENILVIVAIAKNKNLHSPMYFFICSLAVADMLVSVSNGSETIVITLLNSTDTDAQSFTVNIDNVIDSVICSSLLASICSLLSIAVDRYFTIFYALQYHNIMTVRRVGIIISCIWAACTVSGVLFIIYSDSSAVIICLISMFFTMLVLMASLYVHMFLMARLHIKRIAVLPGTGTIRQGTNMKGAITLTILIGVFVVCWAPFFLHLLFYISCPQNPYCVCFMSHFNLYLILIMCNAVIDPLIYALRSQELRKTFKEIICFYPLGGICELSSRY
Chain of mMC4R-NanoLuc and mMC4R-HaloTag homodimer (P56450 whole entry): as above
Description: On the first day, cells were plated into 6 well plates in the morning. In the afternoon of the same day, cells were transiently transfected with mMC4R-NanoLuc® fusion protein and the MC4R-HaloTag® fusion protein by adding FuGene6 Transfection (8 μL/well, Promega), DNA (2 μg/well) in OptiMem medium (Invitrogen) at a total volume of 100 μL/well. […] Cells were incubated with transfection reagent overnight at 5% CO2 at 37° C.
This provides the background signal and was subtracted from the final experimental signal. Plates were then developed 48 to 60 hours after transfection. Two hours before the plates were developed, 10 μL of a 10× aliquot of the ligand diluted in assay buffer was added to each well to yield the final in well concentration (10^−5, 10^−7, or 10^−9M) of each compound. For the assay buffer control, 10 μL of assay buffer was added instead of compound. […] The standard error of the mean (SEM) was derived from at least three independent experiments.

[5] = target: T1, hMC4R; test: cAMP Signaling | EC50 (nM)
Description: Table printed on a drawing sheet, Figure 20
The cAMP signaling potency was determined by AlphaScreen™ assays. […] The reported errors are the standard error of the mean (SEM) determined from at least three independent experiments. Changes less than 3-fold were considered to be within the inherent experimental assay error.
Target sequence in this assay (P32245 whole entry, looked up): as the sequence (P32245 whole entry) above

[6] = target: T1, hMC4R; test: β-Arrestin Recruitment | EC50 (nM)
Target sequence in this assay (P32245 whole entry, looked up): as the sequence (P32245 whole entry) above

fold increase in β-arrestin recruitment compared to CJL-1-14 [1]: 5 fold | fold increase in cAMP potency compared to CJL-1-14 ([2]; vs monovalent tetrapeptide CJL-1-14): 3 fold
Compound: CC(=O)N[C@@H](Cc1c[nH]cn1)C(=O)N[C@H](Cc1ccccc1)C(=O)N[C@@H](CCCNC(=N)N)C(=O)N[C@@H](Cc1c[nH]c2ccccc12)C(=O)NCCCOCCOCCOCCCNC(=O)COCC(N)=O [CJL-5-35-4, reference compound]

EC50 [3]: 9.8 ± 2.7 nM
Compound: CC(=O)N[C@@H](Cc1c[nH]cn1)C(=O)N[C@H](Cc1ccccc1)C(=O)N[C@@H](CCCNC(=N)N)C(=O)N[C@@H](Cc1c[nH]c2ccccc12)C(N)=O [CJL-1-14, Ac-His-DPhe-Arg-Trp-NH2]

change in BRET signal (in words) [4]: no significant changes in BRET signal | β-arrestin recruitment efficacy (in words) ([1]; relative to NDP-MSH control, up to 10 μM): equal or lower β-arrestin recruitment | cAMP accumulation of that seen with NDP-MSH ([2]; at 10 μM): 70%
Compound: CC(=O)N[C@@H](Cc1c[nH]cn1)C(=O)N[C@H](Cc1ccc2ccccc2c1)C(=O)N[C@@H](CCCNC(=N)N)C(=O)N[C@@H](Cc1c[nH]c2ccccc12)C(=O)NCCCOCCOCCOCCCNC(=O)COCC(=O)N[C@@H](Cc1c[nH]cn1)C(=O)N[C@H](Cc1ccc2ccccc2c1)C(=O)N[C@@H](CCCNC(=N)N)C(=O)N[C@@H](Cc1c[nH]c2ccccc12)C(N)=O [CJL-1-140]

EC50 [5]: 2 ± 0.3 nM | fold increase in β-arrestin recruitment compared to CJL-1-14 [1]: < 3 fold | EC50 [6]: 140 ± 70 nM
Compound: N=C(N)NCCC[C@H](NC(=O)[C@@H](Cc1ccccc1)NC(=O)[C@H](Cc1c[nH]cn1)NC(=O)COCC(=O)NCCCOCCOCCOCCCN)C(=O)N[C@@H](Cc1c[nH]c2ccccc12)C(N)=O [CJL-1-116]

EC50 [5]: 1.9 ± 0.2 nM | β-arrestin response compared to maximal efficacy of NDP-MSH ([1]; at 10 μM): 55% | cAMP agonist potency (in words) ([2]; HEK293 cells stably expressing hMC4R): single digit nanomolar agonists
Compound: CC(=O)N[C@@H](Cc1c[nH]cn1)C(=O)N[C@H](Cc1ccc2ccccc2c1)C(=O)N[C@@H](CCCNC(=N)N)C(=O)N[C@@H](Cc1c[nH]c2ccccc12)C(=O)N1CCC[C@H]1C(=O)NCC(=O)N1CCC[C@H]1C(=O)NCC(=O)N1CCC[C@H]1C(=O)NCC(=O)N1CCC[C@H]1C(=O)NCC(=O)N1CCC[C@H]1C(=O)NCC(=O)N1CCC[C@H]1C(=O)NCC(=O)N[C@@H](Cc1c[nH]cn1)C(=O)N[C@H](Cc1ccccc1)C(=O)N[C@@H](CCCNC(=N)N)C(=O)N[C@@H](Cc1c[nH]c2ccccc12)C(N)=O [CJL-1-63, Ac-His-DNal(2′)-Arg-Trp-(Pro-Gly)6-His-DPhe-Arg-Trp-NH2] (Ac-H[d2Nal]RWPGPGPGPGPGPGH[dF]RW-NH2)
